Here are results for 28 compounds from patent publication US20080242661A1, “Novel compounds useful for the treatment of degenerative & inflammatory diseases” (priority 2006, published 2008).

The target in the experiment is purified PDE1A enzyme (Homo sapiens, UniProt P54750). The experiment can be described thus: In vitro PDE1A assay, dose response (Biomol Cyclic Nucleotide Phosphodiesterase Assay Kit, colorimetric). The format is biochemical. Particulars: 100 μM cAMP, 45 min at 37° C., 8 points from 20 μM, duplicate. Summed up: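 Purified PDE1A with 100 μM cAMP and 5′-nucleotidase, incubated 45 min at 37° C in Tris 20 mM pH 7.4 with calmodulin, MgCl2 and CaCl2; released phosphate read by malachite-green absorbance at 615 nm. Duplicate 8-point ⅓ dilutions from 20 μM in 1% DMSO; 10 μM vardenafil defines 100% inhibition.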
As a reminder, the IC50 is the point on the concentration scale where inhibition reaches its midpoint. Low readings indicate greater potency in that assay, high ones weaker potency in that assay. In turn, `CCCc1nn(C)c2c(=O)[nH]c(NCc3ccn(-c4ccccc4)n3)nc12` [Example 57, 1-methyl-5-((1-phenyl-1H-pyrazol-3-yl)methylamino)-3-propyl-1H-pyrazolo[4,3-d]pyrimidin-7(6H)-one] displayed an IC50 of 101 to 500 nM.

For the compound `CCCc1nn(C)c2c(=O)[nH]c(NCCc3cnn(-c4ccccc4)c3)nc12` [Example 88, 1-methyl-5-(2-(1-phenyl-1H-pyrazol-4-yl)ethylamino)-3-propyl-1H-pyrazolo[4,3-d]pyrimidin-7(6H)-one], the 50% inhibitory concentration (IC50) was > 500 nM.

Take `CCCc1nn(C)c2c(=O)[nH]c(N(C)CCc3ccc(OC)c(OC)c3)nc12` [Example 20, 5-((3,4-dimethoxyphenethyl)(methyl)amino)-1-methyl-3-propyl-1H-pyrazolo[4,3-d]pyrimidin-7(6H)-one]: the IC50 was > 500 nM.

`CCCc1nn(C)c2c(=O)[nH]c(N(C)Cc3ccc(-c4cncnc4)cc3)nc12` [Example 13, 1-methyl-5-(methyl(4-(pyrimidin-5-yl)benzyl)amino)-3-propyl-1H-pyrazolo[4,3-d]pyrimidin-7(6H)-one] registered a half-maximal inhibitory concentration (IC50) of 101 to 500 nM.

Turning to `CCCc1nn(C)c2c(=O)[nH]c(NCc3cccc(-n4cccn4)c3)nc12` [Example 63], the IC50 lay in the range of 101 to 500 nM.

In the case of `Cn1nc(C2CCCC2)c2nc(NCc3ccc(Cl)c(Cl)c3)[nH]c(=O)c21` [Example 76, 3-cyclopentyl-5-(3,4-dichlorobenzylamino)-1-methyl-1H-pyrazolo[4,3-d]pyrimidin-7(6H)-one], the IC50 is 101 to 500 nM.

Regarding `CCCc1nn(C)c2c(=O)[nH]c(Nc3ccc4[nH]ncc4c3)nc12` [Example 7, 5-(1H-indazol-5-ylamino)-1-methyl-3-propyl-1H-pyrazolo[4,3-d]pyrimidin-7(6H)-one], the IC50 is > 500 nM.

`CCCc1nn(C)c2c(=O)[nH]c(N(Cc3ccccc3)C(C)C)nc12` [Example 28, 5-(benzyl(isopropyl)amino)-1-methyl-3-propyl-1H-pyrazolo[4,3-d]pyrimidin-7(6H)-one] had an IC50 of 101 to 500 nM.

In turn, `CCCc1nn(C)c2c(=O)[nH]c(N(C)Cc3ccc(N4CCCCC4)cc3)nc12` [Example 3, 1-methyl-5-(methyl(4-(piperidin-1-yl)benzyl)amino)-3-propyl-1H-pyrazolo[4,3-d]pyrimidin-7(6H)-one] gave an IC50 of 101 to 500 nM.

`CCCc1nn(C)c2c(=O)[nH]c(NCc3ccc4c(ccn4C)c3)nc12` [Example 68, 1-methyl-5-((1-methyl-1H-indol-5-yl)methylamino)-3-propyl-1H-pyrazolo[4,3-d]pyrimidin-7(6H)-one]: the half-inhibitory concentration (IC50) lay in the range of 101 to 500 nM.

On to `CCCc1nn(C)c2c(=O)[nH]c(NCc3ccc(N4CCN(C)CC4)cc3)nc12` [Example 6, 1-methyl-5-(4-(4-methylpiperazin-1-yl)benzylamino)-3-propyl-1H-pyrazolo[4,3-d]pyrimidin-7(6H)-one], for which the half-inhibitory concentration (IC50) was > 500 nM.

As to `CCCc1nn(C)c2c(=O)[nH]c(NCCc3ccc(Cl)cc3)nc12` [Example 79, 5-(4-chlorophenethylamino)-1-methyl-3-propyl-1H-pyrazolo[4,3-d]pyrimidin-7(6H)-one], the 50% inhibitory concentration (IC50) fell in the range of 101 to 500 nM.

As for `CCCc1nn(C)c2c(=O)[nH]c(N(CC(C)C)CC(C)C)nc12` [Example 29, 5-(diisobutylamino)-1-methyl-3-propyl-1H-pyrazolo[4,3-d]pyrimidin-7(6H)-one], the half-inhibitory concentration (IC50) fell in the range of 101 to 500 nM.

In the case of `CCCc1nn(C)c2c(=O)[nH]c(NCc3ccc4c(c3)CCO4)nc12` [Example 62, 5-((2,3-dihydrobenzofuran-5-yl)methylamino)-1-methyl-3-propyl-1H-pyrazolo[4,3-d]pyrimidin-7(6H)-one], the IC50 fell in the range of 101 to 500 nM.

The compound `CCCc1nn(C)c2c(=O)[nH]c(N(C)Cc3ccc(C(F)(F)F)cc3)nc12` [Example 16, 1-methyl-5-(methyl(4-(trifluoromethyl)benzyl)amino)-3-propyl-1H-pyrazolo[4,3-d]pyrimidin-7(6H)-one] registered a half-inhibitory concentration (IC50) of 101 to 500 nM.

On to `CCCc1nn(C)c2c(=O)[nH]c(NCc3cc(-c4ccccc4)nn3C)nc12` [Example 66, 1-methyl-5-((1-methyl-3-phenyl-1H-pyrazol-5-yl)methylamino)-3-propyl-1H-pyrazolo[4,3-d]pyrimidin-7(6H)-one], for which the 50% inhibitory concentration (IC50) was < 100 nM.

As for `CCCc1nn(C)c2c(=O)[nH]c(N(Cc3ccc(F)cc3)CC(C)C)nc12` [Example 98, 5-((4-fluorobenzyl)(isobutyl)amino)-1-methyl-3-propyl-1H-pyrazolo[4,3-d]pyrimidin-7(6H)-one], the IC50 is < 100 nM.

For `CCCc1nn(C)c2c(=O)[nH]c(N3CCCN(Cc4c(F)cccc4Cl)CC3)nc12` [Example 1, 5-(4-(2-chloro-6-fluorobenzyl)-1,4-diazepan-1-yl)-1-methyl-3-propyl-1H-pyrazolo[4,3-d]pyrimidin-7(6H)-one], the IC50 was > 500 nM.

Consider `Cc1nc(-c2ccccc2)sc1CN(C)c1nc2c(C(C)(C)C)nn(C)c2c(=O)[nH]1` [Example 80, 3-tert-butyl-1-methyl-5-(methyl((4-methyl-2-phenylthiazol-5-yl)methyl)amino)-1H-pyrazolo[4,3-d]pyrimidin-7(6H)-one], for which the IC50 was < 100 nM.

Regarding `CCCc1nn(C)c2c(=O)[nH]c(N(Cc3cccc(-n4cncn4)c3)CC(C)C)nc12` [Example 96], the half-inhibitory concentration (IC50) is < 100 nM.

`CCCc1nn(C)c2c(=O)[nH]c(N3CCc4cc(OC)c(OC)cc4C3C)nc12` (stereo not shown) [Example 37, 5-(6,7-dimethoxy-1-methyl-3,4-dihydroisoquinolin-2(1H)-yl)-1-methyl-3-propyl-1H-pyrazolo[4,3-d]pyrimidin-7(6H)-one] displayed a half-maximal inhibitory concentration (IC50) of 101 to 500 nM.

Regarding `CCCc1nn(C)c2c(=O)[nH]c(N(Cc3cccc(N4CCOCC4)c3)CC(C)CC)nc12` (stereo not shown) [Example 114, 1-methyl-5-((2-methylbutyl)(3-morpholinobenzyl)amino)-3-propyl-1H-pyrazolo[4,3-d]pyrimidin-7(6H)-one], the IC50 was < 100 nM.

Take `CCCc1nn(C)c2c(=O)[nH]c(NCc3nn(-c4ccccc4)nc3C)nc12` [Example 52, 1-methyl-5-((5-methyl-2-phenyl-2H-1,2,3-triazol-4-yl)methylamino)-3-propyl-1H-pyrazolo[4,3-d]pyrimidin-7(6H)-one]: the half-maximal inhibitory concentration (IC50) was < 100 nM.

With `CCCCN(Cc1ccc(Cl)c(Cl)c1)c1nc2c(CCC)nn(C)c2c(=O)[nH]1` [Example 46, 5-(butyl(3,4-dichlorobenzyl)amino)-1-methyl-3-propyl-1H-pyrazolo[4,3-d]pyrimidin-7(6H)-one], the IC50 is 101 to 500 nM.

`CCCc1nn(C)c2c(=O)[nH]c(NCc3cccc(-n4cccc4)c3)nc12` [Example 64]: the IC50 fell in the range of 101 to 500 nM.

In turn, `CCCc1nn(C)c2c(=O)[nH]c(NCc3nnc4ccccn34)nc12` [Example 83, 5-([1,2,4]triazolo[4,3-a]pyridin-3-ylmethylamino)-1-methyl-3-propyl-1H-pyrazolo[4,3-d]pyrimidin-7(6H)-one] came in with an IC50 of 101 to 500 nM.

Consider `CCCc1nn(C)c2c(=O)[nH]c(N(CCC(C)C)Cc3ccc(Cl)c(Cl)c3)nc12` [Example 45, 5-((3,4-dichlorobenzyl)(isopentyl)amino)-1-methyl-3-propyl-1H-pyrazolo[4,3-d]pyrimidin-7(6H)-one], for which the IC50 is < 100 nM.

On to `CC(C)CN(Cc1ccc(F)cc1)c1nc2c(C(C)(C)C)nn(C)c2c(=O)[nH]1` [Example 97, 3-tert-butyl-5-((4-fluorobenzyl)(isobutyl)amino)-1-methyl-1H-pyrazolo[4,3-d]pyrimidin-7(6H)-one], for which the IC50 was < 100 nM.
